In PubChem BioAssay (NCI):
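How tested: cells in 96-well plates exposed to compound for 48 hours at five concentrations. TGI: total growth inhibition.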

These molecules were tested on NCI-H460 lung (assay: NCI tumour cell line growth inhibition, 48 h).

| Compound | TGI [µM] |
| --- | --- |
| Nc1nc2[nH]c(=O)cnc2c(=O)[nH]1 | > 125 |
| O=[N+]([O-])c1ccc2[nH]c3c(-c4ccccc4)nccc3c2c1 | 40.9 |

Each molecule was assayed on MALME-3M melanoma (assay: NCI tumour cell line growth inhibition, 48 h).

| Compound | TGI [µM] |
| --- | --- |
| CCCCCOc1ccc(C=Nc2ccc(-c3ccc(N=Cc4ccc(OCCCCC)cc4)c(OC)c3)cc2OC)cc1 | > 100 |
| CN(C)CCN=C1c2ccccc2-c2c(=O)n(CCN(C)C)c(O)c3cccc1c23 | 1.6 |
| Nc1nc2[nH]c(=O)cnc2c(=O)[nH]1 | > 125 |
| O=[N+]([O-])c1ccc2[nH]c3c(-c4ccccc4)nccc3c2c1 | 50.7 |

The molecules below were run on HCT-116 colon (assay: NCI tumour cell line growth inhibition, 48 h).

| Compound | TGI [µM] |
| --- | --- |
| CCCCCOc1ccc(C=Nc2ccc(-c3ccc(N=Cc4ccc(OCCCCC)cc4)c(OC)c3)cc2OC)cc1 | > 100 |
| CN(C)CCN=C1c2ccccc2-c2c(=O)n(CCN(C)C)c(O)c3cccc1c23 | 0.432 |
| Nc1nc2[nH]c(=O)cnc2c(=O)[nH]1 | > 125 |
| O=[N+]([O-])c1ccc2[nH]c3c(-c4ccccc4)nccc3c2c1 | > 51.8 |

What follows are molecules tested on UACC-62 melanoma (assay: NCI tumour cell line growth inhibition, 48 h).

| Compound | TGI [µM] |
| --- | --- |
| CCCCCOc1ccc(C=Nc2ccc(-c3ccc(N=Cc4ccc(OCCCCC)cc4)c(OC)c3)cc2OC)cc1 | > 100 |
| CN(C)CCN=C1c2ccccc2-c2c(=O)n(CCN(C)C)c(O)c3cccc1c23 | 0.734 |
| Nc1nc2[nH]c(=O)cnc2c(=O)[nH]1 | > 125 |
| O=[N+]([O-])c1ccc2[nH]c3c(-c4ccccc4)nccc3c2c1 | 38.6 |

These molecules were tested on SNB-19 CNS (assay: NCI tumour cell line growth inhibition, 48 h).

| Compound | TGI [µM] |
| --- | --- |
| CCCCCOc1ccc(C=Nc2ccc(-c3ccc(N=Cc4ccc(OCCCCC)cc4)c(OC)c3)cc2OC)cc1 | > 100 |
| CN(C)CCN=C1c2ccccc2-c2c(=O)n(CCN(C)C)c(O)c3cccc1c23 | 1.73 |
| Nc1nc2[nH]c(=O)cnc2c(=O)[nH]1 | > 125 |
| O=[N+]([O-])c1ccc2[nH]c3c(-c4ccccc4)nccc3c2c1 | 58.5 |

Each molecule was assayed on SK-MEL-28 melanoma (assay: NCI tumour cell line growth inhibition, 48 h).

| Compound | TGI [µM] |
| --- | --- |
| CCCCCOc1ccc(C=Nc2ccc(-c3ccc(N=Cc4ccc(OCCCCC)cc4)c(OC)c3)cc2OC)cc1 | > 100 |
| CN(C)CCN=C1c2ccccc2-c2c(=O)n(CCN(C)C)c(O)c3cccc1c23 | 0.862 |
| Nc1nc2[nH]c(=O)cnc2c(=O)[nH]1 | > 125 |
| O=[N+]([O-])c1ccc2[nH]c3c(-c4ccccc4)nccc3c2c1 | > 85.3 |

These molecules were tested on MCF7 breast (assay: NCI tumour cell line growth inhibition, 48 h).

| Compound | TGI [µM] |
| --- | --- |
| CCCCCOc1ccc(C=Nc2ccc(-c3ccc(N=Cc4ccc(OCCCCC)cc4)c(OC)c3)cc2OC)cc1 | > 100 |
| CN(C)CCN=C1c2ccccc2-c2c(=O)n(CCN(C)C)c(O)c3cccc1c23 | 0.944 |
| Nc1nc2[nH]c(=O)cnc2c(=O)[nH]1 | > 125 |
| O=[N+]([O-])c1ccc2[nH]c3c(-c4ccccc4)nccc3c2c1 | > 60.3 |

What follows are molecules tested on SF-295 CNS (assay: NCI tumour cell line growth inhibition, 48 h).

| Compound | TGI [µM] |
| --- | --- |
| CCCCCOc1ccc(C=Nc2ccc(-c3ccc(N=Cc4ccc(OCCCCC)cc4)c(OC)c3)cc2OC)cc1 | > 100 |
| CN(C)CCN=C1c2ccccc2-c2c(=O)n(CCN(C)C)c(O)c3cccc1c23 | 0.605 |
| Nc1nc2[nH]c(=O)cnc2c(=O)[nH]1 | > 125 |
| O=[N+]([O-])c1ccc2[nH]c3c(-c4ccccc4)nccc3c2c1 | 45.7 |

The molecules below were run on HOP-62 NSCLC (assay: NCI tumour cell line growth inhibition, 48 h).

| Compound | TGI [µM] |
| --- | --- |
| CCCCCOc1ccc(C=Nc2ccc(-c3ccc(N=Cc4ccc(OCCCCC)cc4)c(OC)c3)cc2OC)cc1 | > 100 |
| CN(C)CCN=C1c2ccccc2-c2c(=O)n(CCN(C)C)c(O)c3cccc1c23 | 4.04 |
| Nc1nc2[nH]c(=O)cnc2c(=O)[nH]1 | > 125 |
| O=[N+]([O-])c1ccc2[nH]c3c(-c4ccccc4)nccc3c2c1 | 43 |

What follows are molecules tested on XF 498 CNS (assay: NCI tumour cell line growth inhibition, 48 h).

| Compound | TGI [µM] |
| --- | --- |
| CCCCCOc1ccc(C=Nc2ccc(-c3ccc(N=Cc4ccc(OCCCCC)cc4)c(OC)c3)cc2OC)cc1 | > 100 |
| CN(C)CCN=C1c2ccccc2-c2c(=O)n(CCN(C)C)c(O)c3cccc1c23 | 0.922 |
| Nc1nc2[nH]c(=O)cnc2c(=O)[nH]1 | > 125 |
| O=[N+]([O-])c1ccc2[nH]c3c(-c4ccccc4)nccc3c2c1 | > 61.7 |

What follows are molecules tested on UO-31 renal (assay: NCI tumour cell line growth inhibition, 48 h).

| Compound | TGI [µM] |
| --- | --- |
| CCCCCOc1ccc(C=Nc2ccc(-c3ccc(N=Cc4ccc(OCCCCC)cc4)c(OC)c3)cc2OC)cc1 | > 100 |
| CN(C)CCN=C1c2ccccc2-c2c(=O)n(CCN(C)C)c(O)c3cccc1c23 | 3.97 |
| Nc1nc2[nH]c(=O)cnc2c(=O)[nH]1 | > 125 |
| O=[N+]([O-])c1ccc2[nH]c3c(-c4ccccc4)nccc3c2c1 | 44.4 |

Each molecule was assayed on KM20L2 colon (assay: NCI tumour cell line growth inhibition, 48 h).

| Compound | TGI [µM] |
| --- | --- |
| CCCCCOc1ccc(C=Nc2ccc(-c3ccc(N=Cc4ccc(OCCCCC)cc4)c(OC)c3)cc2OC)cc1 | > 100 |
| CN(C)CCN=C1c2ccccc2-c2c(=O)n(CCN(C)C)c(O)c3cccc1c23 | 0.783 |
| Nc1nc2[nH]c(=O)cnc2c(=O)[nH]1 | > 91.4 |
| O=[N+]([O-])c1ccc2[nH]c3c(-c4ccccc4)nccc3c2c1 | > 100 |

What follows are molecules tested on P388 leukemia (assay: NCI tumour cell line growth inhibition, 48 h).

| Compound | TGI [µM] |
| --- | --- |
| CCCCCOc1ccc(C=Nc2ccc(-c3ccc(N=Cc4ccc(OCCCCC)cc4)c(OC)c3)cc2OC)cc1 | > 100 |
| Nc1nc2[nH]c(=O)cnc2c(=O)[nH]1 | > 125 |
| O=[N+]([O-])c1ccc2[nH]c3c(-c4ccccc4)nccc3c2c1 | > 47.3 |

The molecules below were run on HCT-15 colon (assay: NCI tumour cell line growth inhibition, 48 h).

| Compound | TGI [µM] |
| --- | --- |
| CCCCCOc1ccc(C=Nc2ccc(-c3ccc(N=Cc4ccc(OCCCCC)cc4)c(OC)c3)cc2OC)cc1 | > 100 |
| CN(C)CCN=C1c2ccccc2-c2c(=O)n(CCN(C)C)c(O)c3cccc1c23 | 0.245 |
| Nc1nc2[nH]c(=O)cnc2c(=O)[nH]1 | > 78.9 |
| O=[N+]([O-])c1ccc2[nH]c3c(-c4ccccc4)nccc3c2c1 | > 74.7 |

Each molecule was assayed on RPMI-8226 leukemia (assay: NCI tumour cell line growth inhibition, 48 h).

| Compound | TGI [µM] |
| --- | --- |
| CCCCCOc1ccc(C=Nc2ccc(-c3ccc(N=Cc4ccc(OCCCCC)cc4)c(OC)c3)cc2OC)cc1 | > 100 |
| CN(C)CCN=C1c2ccccc2-c2c(=O)n(CCN(C)C)c(O)c3cccc1c23 | 12.9 |
